{
  "source": "patent US20230144898A1",
  "about": "“INHIBITOR OF ASPARTIC ACID SYNTHESIS IN TUMOR CELLS, INHIBITOR OF SPHEROID FORMATION OF TUMOR CELLS, INHIBITOR OF TUMOR CELL METASTASIS, ACTIVITY ENHANCER OF GLYCOLYTIC INHIBITOR, AND PHARMACEUTICAL COMPOSITION FOR SUPPRESSING AND/OR PREVENTING TUMOR METASTASIS” (CCI HOLDINGS INC., priority 2020, published 2023)",
  "key": {"B16F10 cells [1]": {"system": "B16F10 cells", "assay": "Metabolomic analysis (amino acids) by CE-TOFMS (Test Example 7)", "format": "cell-based, mouse", "method": "The metabolomic analysis (amino acids) of neopetasin-treated B16F10 cells was performed. Specifically, for B16F10 cells treated with neopetasin (3 µM) through the same method as in Test Example 1, the cells were recovered at each time point of 9 hours and 48 hours after the treatment, and amino acid concentration was measured using a capillary electrophoresis-time of flight mass spectrometer (CE-TOFMS). Furthermore, the amino acid concentration in the sample was measured according to an internal standard calibration method, and the internal standard concentration in the sample was calculated as 25 µM. Moreover, for the analysis, Master Hands ver. 2.17.3.18 (Institute for Advanced Biosciences, Keio University) was used."}, "B16F10 cells [2]": {"system": "B16F10 cells", "assay": "Mouse malignant melanoma lung metastasis model (Test Example 2)", "format": "in vivo", "settings": "50 mg/kg intraperitoneally once every two days, 5 times; after 10 days", "method": "Using the mouse malignant melanoma lung metastasis model, the metastasis inhibitory effect of neopetasin on tumor cells was examined. Specifically, C57BL/6 mice (6 weeks old, female) were purchased from Japan SLC (Hamamatsu). Then, the B16F10 cells were intravenously administered from tail vein in an amount of 0.25×10^6 cells/100 µL PBS. Then, from the day when the cells were seeded, neopetasin (50 mg/kg) was intraperitoneally administered once every two days (5 times in total). After 10 days from the start of administration, the lungs were dissected and extracted, and the number of metastasis lesions observed on the lung surface was counted. In addition, the P value was calculated using Student’s T-test using the GraphPad Prism software system (GraphPad software Inc) ."}, "B16F10 cells [3]": {"system": "B16F10 cells", "assay": "Scratch wound healing assay (Test Example 5)", "format": "cell-based, mouse", "settings": "0.3 µM, 72 hours", "method": "Specifically, to start with, B16F10 cells were seeded in a six-well plate in an amount of 1.0×10^5 cells/mL. After 24 hours starting from seeding, scratches were then made using 200 µL chips. Thereafter, the medium was changed to a neopetasin-containing one (concentration: 0.3 µM), the cells were further cultured for 72 hours, and the cells were photographed. In addition, as a negative control section, the same experiment was performed by replacing the medium with the same medium not containing neopetasin."}, "B16F10 cells [4]": {"system": "B16F10 cells", "assay": "Spheroid formation assay (Test Example 4)", "format": "cell-based, mouse", "settings": "0.3 µM or 3 µM; 24, 48 and 72 hours", "method": "Specifically, B16F10 cells were seeded in an amount of 0.3×10^5 cells/mL in a 96-well plate for spheroid formation in an amount of 100 µL each. Thereupon, neopetasin at a concentration of 0.3 µM or 3 µM was added to the medium. Cells were photographed using a phase-contrast microscope after 24 hours, 48 hours and 72 hours of adding neopetasin. Moreover, as a negative control section, DMSO was administered to perform the same experiment."}},
  "note": "“Also recorded” adds a separate entry of the source.",
  "data": [
    {"smiles": "C=C(C)[C@H]1C[C@@]2(C)C(=CC1=O)CC[C@@H](OC(=O)/C(C)=C\\C)[C@@H]2C", "note": "[Neopetasin, neopetasin]", "values": [
      {"measurement": "concentration of aspartic acid (Asp) in the sample", "setting": "B16F10 cells [1]; 3 µM, after 9 hours", "result": "strongly reduced"},
      {"measurement": "aspartic acid synthesis, remaining fraction", "setting": "B16F10 cells [1]; summary statement", "result": "⅒"},
      {"measurement": "lung metastasis (number of metastasis lesions on the lung surface)", "setting": "B16F10 cells [2]", "result": "extremely potently suppressed lung metastasis; also recorded: inhibited lung metastasis"},
      {"measurement": "migration of tumor cells to the scratch portion", "setting": "B16F10 cells [3]", "result": "suppressed"},
      {"measurement": "spheroid formation", "setting": "B16F10 cells [4]", "result": "could not form spheroids"}
    ]}
  ]
}
